Laboratory results taken from US12534748B2, “Engineered beta-subunit of tryptophan synthase for production of non-canonical amino acids” (California Institute of Technology, priority 2015, dated 2026).

Legend:
[1] = molecular target: T1, Archaeoglobus fulgidus TrpB variant AfTrpB^0B2 (P25L, E30G, I80V, F285S, T303S, T332A), SEQ ID NO: 22 (Archaeoglobus fulgidus, UniProt O28672, I80V/L285S/P25L/P30G/T303S/T332A); test: Tryptophan formation from L-serine and indole, kinetics of AfTrpB^0B2
T1 sequence (O28672 with tags, fused parts or gaps P25L/P30G/I80V/L285S/T303S/T332A): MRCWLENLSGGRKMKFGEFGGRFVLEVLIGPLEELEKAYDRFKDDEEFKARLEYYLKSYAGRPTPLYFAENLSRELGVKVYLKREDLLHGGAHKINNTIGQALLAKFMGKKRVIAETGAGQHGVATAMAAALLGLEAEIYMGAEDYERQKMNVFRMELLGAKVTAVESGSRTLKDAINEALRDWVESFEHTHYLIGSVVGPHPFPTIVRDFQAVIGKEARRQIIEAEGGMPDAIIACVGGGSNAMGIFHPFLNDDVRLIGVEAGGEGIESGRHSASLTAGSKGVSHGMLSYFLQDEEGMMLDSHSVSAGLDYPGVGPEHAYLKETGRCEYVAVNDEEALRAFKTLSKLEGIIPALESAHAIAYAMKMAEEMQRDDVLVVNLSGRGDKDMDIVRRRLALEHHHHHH

[2] = test system: Thermococcus kodakarensis TrpB, wild type (literature); details: cited from earlier work
[3] = molecular target: T2, Thermotoga maritima TrpB variant TmTrpB^T292S, SEQ ID NO: 26 (Thermotoga maritima, UniProt P50909, T292S); test: Tryptophan formation from L-serine and indole, kinetics of TmTrpB^T292S; assay type: biochemical
T2 sequence (P50909 with tags, fused parts or gaps T292S): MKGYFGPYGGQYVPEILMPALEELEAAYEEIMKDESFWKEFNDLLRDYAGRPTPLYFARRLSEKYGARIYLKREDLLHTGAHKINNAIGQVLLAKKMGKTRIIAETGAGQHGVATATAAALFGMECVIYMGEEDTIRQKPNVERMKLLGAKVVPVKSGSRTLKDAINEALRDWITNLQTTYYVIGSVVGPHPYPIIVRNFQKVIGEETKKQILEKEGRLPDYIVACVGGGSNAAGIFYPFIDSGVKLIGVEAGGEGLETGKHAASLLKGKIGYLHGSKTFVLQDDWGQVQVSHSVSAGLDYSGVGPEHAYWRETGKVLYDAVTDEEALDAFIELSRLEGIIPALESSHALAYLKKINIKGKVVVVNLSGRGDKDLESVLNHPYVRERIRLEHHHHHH
Description: Kinetics and UV-Vis Spectroscopy. Data were collected between 550 and 250 nm on a UV1800 Shimadzu spectrophotometer (Shimadzu) using 0.25-20 μM of enzyme in 200 mM potassium phosphate (pH 8.0) in a quartz cuvette. Samples were incubated at 75° C. for >3 min to ensure a stable temperature was reached. PfTrpB activity (kcat) was measured by monitoring tryptophan formation at 290 nm using Δe290=1.89 mM^−1·cm^−1.
Cloning, expression, and purification of the different orthologs. The genes encoding AfTrpB (UNIPROT ID O28672), TmTrpB (UNIPROT ID P50909) and EcTrpB (UNIPROT ID P0A879) were obtained from IDT and cloned into pET22(b)+ using Gibson Assembly. Protein expression was carried out in E. coli BL21 E. cloni Express cells (Lucigen) by inoculating 10-mL Terrific Broth (with 100 μg/mL ampicillin (TBamp)) with a single colony and incubated over night at 37° C. and 250 rpm. These overnight cultures were used to scale up to 500-mL TBamp expression cultures, which were grown by shaking at 250 rpm and 37° C. for ˜3 h or until an OD600 of 0.8 was reached. Then, after chilling the cultures on ice for 20 min, induction was conducted by the addition of IPTG to a final concentration of 1 mM. Induced cultures were allowed to grow at 250 rpm and 20° C. for another 20 h. After centrifugation, pelleted cells were frozen and stored at −20° C. until further use. For protein purification, thawed cells were resuspended in 50 mM potassium phosphate buffer (KPi, pH 8, 20 mM imidazole and 100 mM NaCl (buffer A)), with 200 μM PLP. Lysis was performed by adding BugBuster (Novagen) and incubating for 15 min at 37° C. Once cells were lysed, they were centrifuged to obtain the soluble protein-rich fraction. In the case of TmTrpB (but not for AfTrpB or EcTrpB), the lysate was then incubated at 75° C. for 20 min and was subjected to another centrifugation step. […]
The next homolog, TmTrpB, was examined. […] The variants without the T292S mutation lacked this probative absorbance peak, but the decrease at 428 nm and concomitant increase at 350 nm are consistent with a similar, though less pronounced activation.

c1ccc2[nH]ccc2c1 [indole]
kcat ([1]; 60° C.): 0.51 s⁻¹ | increase in kcat ([1]; compared to wild type): 7 fold | kcat [2]: 1.04 ± 0.03 s⁻¹ | Km ([2]; read-out: KM indole): 63 ± 5 µM | kcat ([3]; 75° C.): 5.8 s⁻¹ | increase in kcat more than TmTrpA binding ([3]; relative to TmTrpA binding (TmTrpS)): 3 fold | increase in kcat ([3]; with respect to wild type): 4 fold
